Measured values as given in patent publication US9512139B2, “Conformationally constrained, fully synthetic macrocyclic compounds” (POLYPHOR AG, priority 2009, dated 2016).

Tests used:
in vitro [1] = format: in vitro ADME, mouse; conditions: plasma; for Plasma Stability 240 min mouse [% remain.]: 4 h
Protocol: (§5) Example compounds were dissolved in DMSO/H2O 90:10 to a final concentration of 10 mM for plasma stability determination and metabolic stability determination.
(§6) Human plasma (3-5 donors, Blutspendedienst SRK, Basel) and CD-1 mouse plasma (mixed gender pool >50 animals, Innovative Research, CA, USA) are both sodium citrate stabilized. The assay is performed in triplicates at 10 μM compound concentration and 37° C. Samples are taken at 0, 15, 60, and 240 minutes and stopped by precipitation with 2 volumes of acetonitrile. The supernatant is collected, evaporated and reconstituted in a 5% acetonitrile solution to be analyzed by HPLC/MS/MS. The resulting peak area counts are expressed in percent of the 0 value and used to determine the endpoint stability in % and the half life in minutes. In order to monitor assay integrity the degradation of propantheline is assayed with every experimental set.

in vitro [2] = format: in vitro ADME, human; conditions: human, plasma; for Plasma Stability 240 min hum [% remain.]: 4 h
Protocol: as §5, §6

[3] = Metabolic stability assay, human microsomes; format: in vitro ADME; conditions: human, microsomes; for half-life at 10 µM: both sexes; for Metabolic Stability 60 min hum [% remain.]: 1 h
Protocol: (§1) 4. Plasma and Metabolic Stability Assays
(§2) The assays were conducted according to literature precedents (F. P. Guengerich, Analysis and Characterization of Enzymes; in: Principles and Methods of Toxicology; A. W. Hayes (Ed.) Raven Press: New York, 1989, 777-813; R. Singh et al., In vitro metabolism of a potent HIV-protease inhibitor (141W94) using rat, monkey and human liver S9, Rapid Commun. Mass Spectrom. 1996, 10, 1019-1026).
(§3) Metabolic Stability Assay
(§4) Microsomes from a human 50 donor mixed gender pool and 1:1 mixtures of microsomes from CD-1 mouse single-gender pools are purchased from Celsis (Belgium). The enzymatic reaction is performed in a buffer containing an NADPH regeneration system and microsomes with the following end concentrations: 100 mM potassium phosphate buffer (all from Sigma), 1 mg/mL glucose-6-phosphate, 1 mg/mL β-nicotinamide adenine dinucleotide phosphate (NADP), 0.65 mg/mL magnesium chloride, 0.8 units/mL of glucose-6-phosphate dehydrogenase (prediluted with 5 mM citrate buffer), 10 μM compound and 1 mg/ml microsomal protein. Compounds are incubated at 37° C. in duplicates and samples are taken after 0, 20 and 60 minutes. After acetonitrile precipitation (2 volumes) and HPLC/MS/MS analysis metabolic turnover is expressed in % of the initial 0 minutes value and half life T½ (min) is calculated. Verapamil for human and propranolol for mouse are used as reference and are assayed with every experimental set.

[4] = Metabolic stability assay, CD-1 mouse microsomes; format: in vitro ADME; conditions: microsomes; for half-life at 10 µM: both sexes; for Metabolic Stability 60 min mouse [% remain.]: 1 h
Protocol: as §1, §2, §3, §4
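Wherever Plasma Stability 240 min mouse [% remain.] is given: sodium citrate stabilized mouse plasma, parent compound quantified by HPLC/MS/MS relative to its peak area at time zero, run in triplicate.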
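Wherever Plasma Stability T½ [min] mouse is given: sodium citrate stabilized mouse plasma, parent compound quantified by HPLC/MS/MS relative to its peak area at time zero, run in triplicate.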

Row | Compound | Plasma Stability T½ [min] mouse (in vitro [1]; both, CD-1, mouse, 10 µM) | Plasma Stability 240 min mouse [% remain.] (in vitro [1]; both, CD-1, mouse, 10 µM) | Plasma Stability T½ [min] hum (in vitro [2]; 10 µM) | Plasma Stability 240 min hum [% remain.] (in vitro [2]; 10 µM) | half-life at 10 µM [3] | Metabolic Stability 60 min hum [% remain.] ([3]; both, 10 µM) | half-life at 10 µM ([4]; CD-1, mouse) | Metabolic Stability 60 min mouse [% remain.] ([4]; both, CD-1, mouse, 10 µM) | Plasma Stability T½ [min] mouse (in vitro [1]; mouse) | Plasma Stability 240 min mouse [% remain.] (in vitro [1]; mouse) | Plasma Stability T½ [min] hum (in vitro [2]) | Plasma Stability 240 min hum [% remain.] (in vitro [2]) | Metabolic Stability T½ [min] hum [3] | Metabolic Stability 60 min hum [% remain.] [3] | Metabolic Stability T½ [min] mouse ([4]; mouse) | Metabolic Stability 60 min mouse [% remain.] ([4]; mouse) | Metabolic Stability T½ [min] hum ([3]; both, 10 µM) | Metabolic Stability T½ [min] mouse ([4]; both, CD-1, mouse, 10 µM) | half-life at 10 µM (in vitro [1]; both sexes, CD-1, mouse)
1 | CC(=O)N[C@H]1C[C@H]2COc3ccc(F)cc3C(=O)N(C)[C@H](C(=O)N3CCCC3)CCC(=O)N(C)CC(=O)N2C1 [Ex. 37, N-[(2S,11S,19aS)-15-fluoro-7,12-dimethyl-5,8,13-trioxo-11-(1-pyrrolidinylcarbonyl)-2,3,6,7,8,9,10,11,12,13,19,19a-dodecahydro-1H,5H-pyrrolo[2,1-c] [1,4,7,12]benzoxatriazacyclo-pentadecin-2-yl]acetamide] | – | – | – | – | – | – | – | – | > 240 min | 100 % remain. | > 240 min | 77 % remain. | > 60 min | 100 % remain. | > 60 min | 100 % remain. | – | – | –
2 | CC(=O)N[C@H]1CN(C)C(=O)c2cccc(c2)OC[C@@H]2C[C@H](NC(=O)CN(C)C)CN2C(=O)CN(C)C1=O [Ex. 208, N-[(4S,6S,13S)-13-(acetylamino)-11,15-dimethyl-9,12,16-trioxo-2-oxa-8,11,15-triazatricyclo[15.3.1.0^4,8]henicosa-1(21),17,19-trien-6-yl]-2-(dimethylamino)acetamide] | > 240 min | 90 % remain. | > 240 min | 98 % remain. | – | 84 % remain. | – | 100 % remain. | – | – | – | – | – | – | – | – | > 60 min | > 60 min | –
3 | CN1CC(=O)N2C[C@@H](NC(=O)CN3CCCC3)C[C@H]2COc2ccc(F)cc2C(=O)N(C)[C@@H](C(=O)N2CCCC2)CCC1=O [Ex. 98, N-[(2S,11R,19aS)-15-fluoro-7,12-dimethyl-5,8,13-trioxo-11-(1-pyrrolidinylcarbonyl)-2,3,6,7,8,9, 10,11,12,13,19,19a-dodecahydro-1H,5H-pyrrolo[2,1-c][1,4,7,12]benzoxatriazacyclopentadecin-2-yl]-2-(1-pyrrolidinyl)acetamide] | > 240 min | 78 % remain. | > 240 min | 100 % remain. | – | 97 % remain. | – | 100 % remain. | – | – | – | – | – | – | – | – | > 60 min | > 60 min | –
4 | CN1CCC[C@H](NC(=O)CC(C)(C)C)C(=O)N2C[C@@H](N)C[C@H]2COc2cccc(c2)C1=O [Ex. 533, N-[(4S,6S,10S)-6-amino-14-methyl-9,15-dioxo-2-oxa-8,14-diazatricyclo[14.3.1.0^4,8]icosa-1(20),16,18-trien-10-yl]-3,3-dimethylbutanamide] | > 240 min | 100 % remain. | > 240 min | 95 % remain. | – | 59 % remain. | – | 93 % remain. | – | – | – | – | – | – | – | – | > 60 min | > 60 min | –
5 | CC(=O)N1CCN([C@H]2CCCN(C)C(=O)c3cccc(c3)OC[C@@H]3C[C@H](O)CN3C2=O)CC1 [Ex. 582, (4S,6S,10S)-10-(4-acetylpiperazino)-6-hydroxy-14-methyl-2-oxa-8,14-diazatricyclo[14.3.1.0^4,8]icosa-1(20),16,18-triene-9,15-dione] | > 240 min | 96 % remain. | > 240 min | 100 % remain. | – | 100 % remain. | – | 98 % remain. | – | – | – | – | – | – | – | – | > 60 min | > 60 min | –
6 | CCCCC(=O)N[C@H]1C[C@H]2COc3cccc(c3)C(=O)N(C)CC[C@H](N)C(=O)N2C1 [Ex. 167, N-[(4S,6S,10S)-10-amino-13-methyl-9,14-dioxo-2-oxa-8,13-diazatricyclo[13.3.1.0^4,8]nonadeca-1(19),15,17-trien-6-yl] pentanamide] | – | 17 % remain. | – | – | – | 58 % remain. | – | 65 % remain. | – | – | – | – | – | – | – | – | > 60 min | > 60 min | 0.583 h

Other lines, results leading:

Row | Plasma Stability T½ [min] mouse (in vitro [1]; both, CD-1, mouse, 10 µM) | Plasma Stability 240 min mouse [% remain.] (in vitro [1]; both, CD-1, mouse, 10 µM) | Plasma Stability T½ [min] hum (in vitro [2]; 10 µM) | Plasma Stability 240 min hum [% remain.] (in vitro [2]; 10 µM) | half-life at 10 µM [3] | Metabolic Stability 60 min hum [% remain.] ([3]; both, 10 µM) | half-life at 10 µM ([4]; CD-1, mouse) | Metabolic Stability 60 min mouse [% remain.] ([4]; both, CD-1, mouse, 10 µM) | Plasma Stability T½ [min] mouse (in vitro [1]; mouse) | Plasma Stability 240 min mouse [% remain.] (in vitro [1]; mouse) | Plasma Stability T½ [min] hum (in vitro [2]) | Plasma Stability 240 min hum [% remain.] (in vitro [2]) | Metabolic Stability T½ [min] hum [3] | Metabolic Stability 60 min hum [% remain.] [3] | Metabolic Stability T½ [min] mouse ([4]; mouse) | Metabolic Stability 60 min mouse [% remain.] ([4]; mouse) | Metabolic Stability T½ [min] hum ([3]; both, 10 µM) | Metabolic Stability T½ [min] mouse ([4]; both, CD-1, mouse, 10 µM) | half-life at 10 µM (in vitro [1]; both sexes, CD-1, mouse) | Compound
7 | > 240 min | 93 % remain. | > 240 min | 100 % remain. | 0.35 h | 0 % remain. | 0.383 h | 4 % remain. | – | – | – | – | – | – | – | – | – | – | – | CCN(CC)[C@@H]1C[C@H]2COc3ccc(cc3)C(=O)N(C)[C@H](C(=O)NCc3ccc4ccccc4c3)CCC(=O)N(C)CC(=O)N2C1 [Ex. 262, (4S,6R,15S)-6-(diethylamino)-11,16-dimethyl-N-(2-naphthylmethyl)-9,12,17-trioxo-2-oxa-8,11,16-triazatricyclo[16.2.2.0^4,8]docosa-1(20),18,21-triene-15-carboxamide]
8 | > 240 min | 79 % remain. | > 240 min | 75 % remain. | – | 99 % remain. | – | 100 % remain. | – | – | – | – | – | – | – | – | > 60 min | > 60 min | – | CN1CC(=O)N2C[C@H](NC(=O)CCC(=O)O)C[C@H]2COc2ccc(cc2)C(=O)N(C)[C@H](C(=O)NCc2ccncc2)CCC1=O [Ex. 267, 4-{[(4S,6R,15S)-11,16-dimethyl-9,12,17-trioxo-15-{[(4-pyridinylmethyl)amino]carbonyl}-2-oxa-8,11,16-triazatricyclo[16.2.2.0^4,8]docosa-1(20),18,21-trien-6-yl]amino}-4-oxobutanoic acid]
9 | > 240 min | 75 % remain. | > 240 min | 65 % remain. | 0.383 h | 4 % remain. | 0.7 h | 39 % remain. | – | – | – | – | – | – | – | – | – | – | – | CCCCCCCCCC(=O)N[C@H]1C[C@H]2COc3ccc(F)cc3C(=O)N(C)[C@@H](C(=O)NCc3ccc4ccccc4c3)CCC(=O)N(C)CC(=O)N2C1 [Ex. 102, (2S,11R,19aS)-2-(decanoylamino)-15-fluoro-7,12-dimethyl-N-(2-naphthylmethyl)-5,8,13-trioxo-2,3,6,7,8,9,10,11,12,13,19,19a-dodecahydro-1H,5H-pyrrolo[2,1-c][1,4,7,12] benzoxatriazacyclopentadecine-11-carboxamide]
10 | > 240 min | 100 % remain. | > 240 min | 100 % remain. | 0.4 h | 1 % remain. | 0.483 h | 15 % remain. | – | – | – | – | – | – | – | – | – | – | – | CNC(=O)[C@H]1CCC(=O)N(C)CC(=O)N2C[C@@H](NC(=O)Cc3ccc4ccccc4c3)C[C@H]2COc2ccc(F)cc2C(=O)N1C [Ex. 93, (2S,11R,19aS)-15-fluoro-N,7,12-trimethyl-2-{[2-(2-naphthyl)acetyl]amino}-5,8,13-trioxo-2,3,6,7,8,9,10,11,12, 13,19,19a-dodecahydro-1H,5H-pyrrolo[2,1-c][1,4,7,12] benzoxatriazacyclopentadecine-11-carboxamide]
11 | > 240 min | 95 % remain. | > 240 min | 100 % remain. | – | 61 % remain. | – | 90 % remain. | – | – | – | – | – | – | – | – | > 60 min | > 60 min | – | CN(C)CC(=O)N[C@@H]1C[C@H]2COc3cccc(c3)C(=O)N(C)C[C@H](NC(=O)Cc3ccc4ccccc4c3)C(=O)N(C)CC(=O)N2C1 [Ex. 230, 2-(dimethylamino)-N-[(4S,6R,13S)-11,15-dimethyl-13-{[2-(2-naphthyl)acetyl]amino}-9,12,16-trioxo-2-oxa-8,11,15-triazatricyclo[15.3.1.0^4,8]henicosa-1(21),17,19-trien-6-yl]acetamide]
12 | > 240 min | 88 % remain. | > 240 min | 94 % remain. | – | – | 0.7 h | 32 % remain. | – | – | – | – | – | – | – | – | – | – | – | CN1CC(=O)N2C[C@H](NC(=O)Cc3ccc4ccccc4c3)C[C@H]2COc2ccc(cc2)C(=O)N(C)[C@H](C(=O)N2CCCC2)CCC1=O [Ex. 264, N-[(4S,6R,15S)-11,16-dimethyl-9,12,17-trioxo-15-(1-pyrrolidinylcarbonyl)-2-oxa-8,11,16-triazatricyclo[16.2.2.0^4,8]docosa-1(20),18,21-trien-6-yl]-2-(2-naphthyl)acetamide]
